{
  "source": "patent US20050131029A1",
  "about": "“Immunophilin ligand treatment of antiretroviral toxic neuropathy” (priority 2003, published 2005)",
  "key": {"[1]": {"test_system": "primary DRG sensory neurons", "conditions": "rat, 4 h"}, "[2]": {"test_system": "primary DRG sensory neurons", "type": "cell-based, rat", "conditions": "for relative neurotoxicity (potency in inhibiting neuritic outgrowth): comparison between NRTIs"}, "[3]": {"test_system": "primary DRG sensory neurons", "experiment": "Neuronal mitochondrial toxicity assay (JC-1 red:green fluorescence in TTC-labeled neurons)", "conditions": "4 hours; NRTIs 1-100 μM, FCCP 25 μM"}, "Schwann cells [4]": {"test_system": "Schwann cells"}, "Schwann cells [5]": {"test_system": "Schwann cells", "experiment": "Cell death in Schwann cells of the co-cultures", "type": "cell-based, rat", "conditions": "ddC dose of 1 mM (data not shown)"}, "[6]": {"test_system": "primary DRG sensory neurons", "type": "cell-based"}, "[7]": {"conditions": "NRTI 1-100 μM added at 3 hours, 15 hours of further incubation"}},
  "data": [
    {"smiles": "O=c1[nH]cnc2c1ncn2[C@H]1CC[C@@H](CO)O1", "note": "[ddl, didanosine]", "values": [
      {"measurement": "concentration achieving the same level of mitochondrial membrane depolarization as (25 μM) FCCP", "setting": "[1]", "value": 1000, "unit": "nM"}
    ]},
    {"smiles": "Cc1cn([C@H]2C[C@H](N=[N+]=[N-])[C@@H](CO)O2)c(=O)[nH]c1=O", "note": "[AZT, zidovudine]", "values": [
      {"measurement": "effect on neuritic morphology", "setting": "[2]; [7]", "value": "did not have any appreciable effect on neuritic morphology, even at high doses"},
      {"measurement": "relative neurotoxicity (potency in inhibiting neuritic outgrowth)", "setting": "[2]", "value": "did not exert significant neurotoxicity"}
    ]},
    {"smiles": "N#CC(C#N)=NNc1ccc(OC(F)(F)F)cc1", "note": "[FCCP]", "values": [
      {"measurement": "JC-1 red:green luminosity ratio (mitochondrial membrane potential differential)", "setting": "[3]", "value": "loss of mitochondrial membrane potential"}
    ]},
    {"smiles": "Nc1ccn([C@H]2CC[C@@H](CO)O2)c(=O)n1", "note": "[ddC, 2′,3′-dideoxycytidine]", "values": [
      {"measurement": "mitochondrial depolarization in Schwann cells", "setting": "Schwann cells [4]", "value": "no evidence of mitochondrial depolarization"},
      {"measurement": "cell death in Schwann cells", "setting": "Schwann cells [5]", "value": "no cell death"},
      {"measurement": "effect on neuritic morphology", "setting": "[2]; [7]", "value": "frank neuritic degeneration was also seen"},
      {"measurement": "total neuritic length and number of neurites per neuron", "setting": "[2]; [7]", "value": "dose-dependent reduction"},
      {"measurement": "relative neurotoxicity (potency in inhibiting neuritic outgrowth)", "setting": "[2]", "value": "most neurotoxic"},
      {"measurement": "concentration achieving the same level of mitochondrial membrane depolarization as (25 μM) FCCP", "setting": "[1]", "value": 1000, "unit": "nM"},
      {"measurement": "TUNEL staining of neurons (marker of apoptosis)", "setting": "[6]; ddC 10 μM, 18 hours (data not shown)", "value": "lack of DNA laddering"},
      {"measurement": "neuronal cell death (percentage of neurons labeling with live-cell marker)", "setting": "[6]; exposure for 18 hours, varying doses", "value": "higher doses of ddC were associated with a lower percentage of neurons labeling with the “live-cell” marker"}
    ]},
    {"smiles": "C=CC[C@@H]1/C=C(\\C)C[C@H](C)C[C@H](OC)[C@H]2O[C@@](O)(C(=O)C(=O)N3CCCC[C@H]3C(=O)O[C@H](/C(C)=C/[C@@H]3CC[C@@H](O)[C@H](OC)C3)[C@H](C)[C@@H](O)CC1=O)[C@H](C)C[C@@H]2OC", "note": "[FK506]", "values": [
      {"measurement": "concentrations at which prevention of neuronal cell death was most prominent", "setting": "[6]; ddC 10 μM, 18 hours", "value": "10 to 100", "unit": "nM"}
    ]}
  ]
}
